Consider six compounds from ChEMBL document CHEMBL4425154, “New P2X3 receptor antagonists. Part 2: Identification and SAR of quinazolinones” (Bioorg Med Chem Lett, 2016).

For the data set the following is noted: human, microsomes, 2.5 µM.

Each structure is given as a SMILES string.

The compound `COc1ccc(OC)c(C(C)n2cnc3ccc(-c4ccccc4S(N)(=O)=O)cc3c2=O)c1` (stereo unspecified) gave a CLH of 48 µL/min/kg.

`NS(=O)(=O)c1ccccc1-c1ccc2ncnc(NCc3ccc(Cl)nc3)c2c1`: the CLH is 0.4 µL/min/kg.

Compound `COc1ccc(OC)c(CCN2CCc3ccc(-c4ccccc4S(N)(=O)=O)cc3C2)c1` yielded a CLH of 23 µL/min/kg. The value for `COc1cc(CCn2cnc3ccc(-c4noc(C)n4)cc3c2=O)cc(OC)c1` was 22 µL/min/kg. The value for `CNc1ccc(-c2ccccc2S(N)(=O)=O)cc1C(=O)NCCc1cc(OC)ccc1OC` was 191 µL/min/kg. The value for `COc1cc(CCn2cnc3ccc(-c4ccccc4S(=O)(=O)N(C)C)cc3c2=O)cc(OC)c1` was 293 µL/min/kg.
